Biological target: Glutamate receptor ionotropic, NMDA 2B (Homo sapiens, UniProt Q13224)
Assay: FDSS Assay
Protocol: To each well of the plate, 10 μL test compound, control (MK801) or HHnoCa buffer was added to a final concentration of 10 μM with a final concentration of DMSO of 0.1%. Following 10 minutes pre-incubation in the dark, plates are loaded onto the Hamamatsu FDSS 6000. After collecting baseline fluorescence images, 3 μM glutamate, 3 glycine, and 1 mM Ca2+ in HHnoCa buffer is added to each well, and Ca2+ is recorded for 3 minutes. Data were processed by computing ratio of fluorescence at the end of data collection to baseline fluorescence to assess degree of Ca′ influx inhibition relative to that observed in MK801.

Chain of Glutamate receptor ionotropic, NMDA 2B (Q13224 whole entry): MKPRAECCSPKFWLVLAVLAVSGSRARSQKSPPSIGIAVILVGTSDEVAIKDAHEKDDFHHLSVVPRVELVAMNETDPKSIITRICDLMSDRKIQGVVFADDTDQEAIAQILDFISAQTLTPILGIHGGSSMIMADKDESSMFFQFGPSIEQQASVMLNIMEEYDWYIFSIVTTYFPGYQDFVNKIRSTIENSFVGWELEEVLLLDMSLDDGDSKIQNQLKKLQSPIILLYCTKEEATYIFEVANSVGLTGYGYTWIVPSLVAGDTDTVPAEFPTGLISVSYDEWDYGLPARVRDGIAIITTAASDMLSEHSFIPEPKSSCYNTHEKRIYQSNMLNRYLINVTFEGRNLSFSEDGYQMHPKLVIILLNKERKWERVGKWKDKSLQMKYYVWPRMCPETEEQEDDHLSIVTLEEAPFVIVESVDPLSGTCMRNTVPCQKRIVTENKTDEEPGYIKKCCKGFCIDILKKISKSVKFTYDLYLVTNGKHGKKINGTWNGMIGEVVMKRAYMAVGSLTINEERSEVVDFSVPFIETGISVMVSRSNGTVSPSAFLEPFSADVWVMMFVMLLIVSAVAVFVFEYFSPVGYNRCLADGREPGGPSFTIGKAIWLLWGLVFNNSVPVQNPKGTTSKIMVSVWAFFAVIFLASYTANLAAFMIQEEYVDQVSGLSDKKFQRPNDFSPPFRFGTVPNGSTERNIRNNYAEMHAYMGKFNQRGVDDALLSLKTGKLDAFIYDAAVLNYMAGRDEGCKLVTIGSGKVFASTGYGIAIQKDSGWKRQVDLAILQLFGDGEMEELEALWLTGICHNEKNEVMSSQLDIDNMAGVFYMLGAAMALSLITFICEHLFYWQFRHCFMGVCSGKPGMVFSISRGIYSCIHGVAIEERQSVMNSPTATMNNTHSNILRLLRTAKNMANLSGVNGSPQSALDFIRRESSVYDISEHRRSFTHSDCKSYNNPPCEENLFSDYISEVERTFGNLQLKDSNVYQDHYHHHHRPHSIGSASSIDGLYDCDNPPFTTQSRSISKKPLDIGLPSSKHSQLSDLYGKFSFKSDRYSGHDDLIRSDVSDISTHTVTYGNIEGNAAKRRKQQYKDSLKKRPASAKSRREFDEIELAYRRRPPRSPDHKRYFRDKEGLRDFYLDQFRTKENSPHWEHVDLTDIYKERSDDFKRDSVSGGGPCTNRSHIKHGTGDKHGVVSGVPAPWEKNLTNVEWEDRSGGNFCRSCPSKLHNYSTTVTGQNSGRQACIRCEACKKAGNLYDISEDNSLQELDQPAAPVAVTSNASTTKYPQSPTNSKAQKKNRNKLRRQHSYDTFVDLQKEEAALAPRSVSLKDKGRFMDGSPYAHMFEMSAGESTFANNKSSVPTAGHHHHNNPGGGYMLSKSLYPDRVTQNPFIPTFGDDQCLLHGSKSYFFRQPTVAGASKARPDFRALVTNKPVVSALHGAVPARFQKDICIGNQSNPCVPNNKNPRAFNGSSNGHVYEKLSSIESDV

O=C(CN1C[C@@H]2C[C@@](O)(c3ccccc3)C[C@@H]2C1)c1ccc(O)cc1 [US10052306, 65]
IC50: 10 µM
